Here are results for three compounds from paper PMC9611727, “Optimization of a Novel Mandelamide-Derived Pyrrolopyrimidine Series of PERK Inhibitors” (Pharmaceutics, 2022).

What all share (assay): scanMAX kinase panel
Holding throughout (format): binding
Conditions in all cases: read-out: % Control; for remaining binding at 1 µM: 1000 nM

Assay [1] deals with T1, FLT3-autoinhibited (Homo sapiens, UniProt P36888).
T1 construct: purchased DiscoverX scanMAX
T1 sequence (P36888 564-993 limits assumed): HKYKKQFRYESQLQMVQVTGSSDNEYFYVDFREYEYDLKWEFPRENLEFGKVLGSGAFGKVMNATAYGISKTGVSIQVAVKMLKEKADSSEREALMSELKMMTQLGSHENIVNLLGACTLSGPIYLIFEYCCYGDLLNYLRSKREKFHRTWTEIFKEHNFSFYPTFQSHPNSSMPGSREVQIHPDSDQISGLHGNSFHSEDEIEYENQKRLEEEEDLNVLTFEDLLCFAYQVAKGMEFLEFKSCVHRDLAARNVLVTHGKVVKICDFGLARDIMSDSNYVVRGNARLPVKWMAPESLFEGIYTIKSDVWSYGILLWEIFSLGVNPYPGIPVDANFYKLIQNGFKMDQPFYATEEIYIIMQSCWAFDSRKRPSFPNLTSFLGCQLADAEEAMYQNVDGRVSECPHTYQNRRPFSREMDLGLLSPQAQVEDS
The text has this: (§1) Supplemental Table S2. scanMAXSM Kinome Assay Results. Complete tabulated data of all 468 kinases from the panel, including
(§2) 403 wild-type and 65 mutant isoforms. […] Cmpd 11 and Cmpd 24

In assay [2] the target is T2, GCN2(Kin.Dom.2,S808G) (Homo sapiens, UniProt Q9P2K8, S808G).
T2 construct: GCN2(Kin.Dom.2,S808G); purchased DiscoverX scanMAX
T2 sequence (Q9P2K8 590-1001 S808G limits assumed): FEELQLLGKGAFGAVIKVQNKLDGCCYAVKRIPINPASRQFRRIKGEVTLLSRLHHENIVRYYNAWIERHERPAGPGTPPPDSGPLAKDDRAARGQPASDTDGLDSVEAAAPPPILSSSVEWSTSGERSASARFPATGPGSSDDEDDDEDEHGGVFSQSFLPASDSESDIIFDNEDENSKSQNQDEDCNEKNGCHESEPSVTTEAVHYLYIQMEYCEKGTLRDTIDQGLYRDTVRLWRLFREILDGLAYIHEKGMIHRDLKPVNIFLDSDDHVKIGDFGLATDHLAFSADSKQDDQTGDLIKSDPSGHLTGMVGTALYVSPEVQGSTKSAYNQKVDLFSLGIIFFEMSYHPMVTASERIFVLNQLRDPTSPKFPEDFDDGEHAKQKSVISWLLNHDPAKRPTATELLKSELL
From the text: as §1, §2

Assay [3] concerns the target T3, KIT (Homo sapiens, UniProt P10721).
T3 construct: purchased DiscoverX scanMAX
From the text: as §1, §2

The target of assay [4] is T4, LOK (Homo sapiens, UniProt O94804).
T4 construct: purchased DiscoverX scanMAX
T4 sequence (O94804 whole entry): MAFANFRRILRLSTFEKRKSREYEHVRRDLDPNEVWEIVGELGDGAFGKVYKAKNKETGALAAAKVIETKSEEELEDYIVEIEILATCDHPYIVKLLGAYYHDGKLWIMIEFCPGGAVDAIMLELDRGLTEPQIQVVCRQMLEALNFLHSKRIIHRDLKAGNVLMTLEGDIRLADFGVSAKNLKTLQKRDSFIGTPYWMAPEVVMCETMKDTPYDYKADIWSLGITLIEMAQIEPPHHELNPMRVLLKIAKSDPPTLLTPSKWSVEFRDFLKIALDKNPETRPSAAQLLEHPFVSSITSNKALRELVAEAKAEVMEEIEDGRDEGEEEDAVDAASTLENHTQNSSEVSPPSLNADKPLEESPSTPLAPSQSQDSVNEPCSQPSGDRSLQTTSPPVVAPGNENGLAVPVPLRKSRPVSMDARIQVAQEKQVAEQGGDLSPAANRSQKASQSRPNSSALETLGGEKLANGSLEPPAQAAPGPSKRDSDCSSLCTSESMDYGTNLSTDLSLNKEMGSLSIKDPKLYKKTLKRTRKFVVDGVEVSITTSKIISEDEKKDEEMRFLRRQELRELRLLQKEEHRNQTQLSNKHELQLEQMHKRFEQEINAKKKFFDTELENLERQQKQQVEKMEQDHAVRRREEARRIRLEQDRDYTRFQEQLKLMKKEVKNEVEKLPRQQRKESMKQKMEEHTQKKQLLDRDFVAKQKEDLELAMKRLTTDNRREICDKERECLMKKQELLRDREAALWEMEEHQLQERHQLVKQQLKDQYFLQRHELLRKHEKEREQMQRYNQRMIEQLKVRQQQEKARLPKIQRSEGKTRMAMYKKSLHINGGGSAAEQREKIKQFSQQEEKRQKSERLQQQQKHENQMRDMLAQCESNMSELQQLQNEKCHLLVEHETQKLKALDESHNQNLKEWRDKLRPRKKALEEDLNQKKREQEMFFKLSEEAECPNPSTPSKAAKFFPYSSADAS
From the text: as §1, §2

Assay [5] has as its target T5, LTK (Homo sapiens, UniProt P29376).
T5 construct: purchased DiscoverX scanMAX
From the text: as §1, §2

For assay [6], the target named is T6, PRKR (Homo sapiens, UniProt P19525).
T6 construct: purchased DiscoverX scanMAX
T6 sequence (P19525 whole entry): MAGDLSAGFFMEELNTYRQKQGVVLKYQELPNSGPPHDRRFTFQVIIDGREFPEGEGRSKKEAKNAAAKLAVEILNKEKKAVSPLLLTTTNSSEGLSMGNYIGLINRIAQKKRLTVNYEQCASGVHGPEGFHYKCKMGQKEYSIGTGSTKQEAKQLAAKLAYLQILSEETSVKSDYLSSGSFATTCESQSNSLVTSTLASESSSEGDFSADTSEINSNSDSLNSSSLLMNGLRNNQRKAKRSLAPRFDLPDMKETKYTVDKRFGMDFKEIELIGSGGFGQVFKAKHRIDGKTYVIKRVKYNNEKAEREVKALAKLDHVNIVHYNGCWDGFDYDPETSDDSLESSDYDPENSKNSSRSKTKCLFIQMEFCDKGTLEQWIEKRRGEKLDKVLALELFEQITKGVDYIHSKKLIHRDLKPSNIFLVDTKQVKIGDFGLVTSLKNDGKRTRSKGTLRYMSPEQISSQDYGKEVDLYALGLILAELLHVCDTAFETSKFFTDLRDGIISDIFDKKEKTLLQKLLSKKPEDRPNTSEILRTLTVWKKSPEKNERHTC
From the text: as §1, §2

Assay [7] concerns the target T7, RIPK5 (Homo sapiens, UniProt Q6XUX3).
T7 construct: purchased DiscoverX (scanMAX panel)
T7 sequence (Q6XUX3 1-929): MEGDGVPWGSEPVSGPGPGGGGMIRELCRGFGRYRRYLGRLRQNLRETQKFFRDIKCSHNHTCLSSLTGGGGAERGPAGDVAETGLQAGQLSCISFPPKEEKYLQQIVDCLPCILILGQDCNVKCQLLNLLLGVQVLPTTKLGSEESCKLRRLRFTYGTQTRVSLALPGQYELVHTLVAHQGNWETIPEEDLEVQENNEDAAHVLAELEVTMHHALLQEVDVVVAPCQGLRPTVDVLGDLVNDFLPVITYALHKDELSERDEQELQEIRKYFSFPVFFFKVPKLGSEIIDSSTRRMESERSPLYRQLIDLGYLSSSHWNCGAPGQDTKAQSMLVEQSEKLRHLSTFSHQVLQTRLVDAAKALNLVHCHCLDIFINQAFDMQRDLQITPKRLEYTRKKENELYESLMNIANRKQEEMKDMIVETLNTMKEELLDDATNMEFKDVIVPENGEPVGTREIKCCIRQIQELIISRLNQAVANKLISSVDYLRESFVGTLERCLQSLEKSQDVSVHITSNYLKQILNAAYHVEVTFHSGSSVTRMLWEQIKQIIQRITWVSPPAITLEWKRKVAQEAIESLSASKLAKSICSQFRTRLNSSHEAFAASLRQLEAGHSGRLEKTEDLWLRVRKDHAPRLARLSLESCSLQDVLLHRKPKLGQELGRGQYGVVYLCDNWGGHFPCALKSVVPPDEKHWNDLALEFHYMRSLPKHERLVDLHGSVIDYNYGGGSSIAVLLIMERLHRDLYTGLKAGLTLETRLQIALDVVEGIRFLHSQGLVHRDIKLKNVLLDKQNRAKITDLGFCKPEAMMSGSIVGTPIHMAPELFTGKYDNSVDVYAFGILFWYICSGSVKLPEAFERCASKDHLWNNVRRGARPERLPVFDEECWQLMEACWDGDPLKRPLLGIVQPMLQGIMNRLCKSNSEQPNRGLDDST
From the text: as §1, §2

In assay [8] the target is T8, TRKB (Homo sapiens, UniProt Q16620).
T8 construct: purchased DiscoverX (scanMAX panel)
T8 sequence (Q16620 32-822): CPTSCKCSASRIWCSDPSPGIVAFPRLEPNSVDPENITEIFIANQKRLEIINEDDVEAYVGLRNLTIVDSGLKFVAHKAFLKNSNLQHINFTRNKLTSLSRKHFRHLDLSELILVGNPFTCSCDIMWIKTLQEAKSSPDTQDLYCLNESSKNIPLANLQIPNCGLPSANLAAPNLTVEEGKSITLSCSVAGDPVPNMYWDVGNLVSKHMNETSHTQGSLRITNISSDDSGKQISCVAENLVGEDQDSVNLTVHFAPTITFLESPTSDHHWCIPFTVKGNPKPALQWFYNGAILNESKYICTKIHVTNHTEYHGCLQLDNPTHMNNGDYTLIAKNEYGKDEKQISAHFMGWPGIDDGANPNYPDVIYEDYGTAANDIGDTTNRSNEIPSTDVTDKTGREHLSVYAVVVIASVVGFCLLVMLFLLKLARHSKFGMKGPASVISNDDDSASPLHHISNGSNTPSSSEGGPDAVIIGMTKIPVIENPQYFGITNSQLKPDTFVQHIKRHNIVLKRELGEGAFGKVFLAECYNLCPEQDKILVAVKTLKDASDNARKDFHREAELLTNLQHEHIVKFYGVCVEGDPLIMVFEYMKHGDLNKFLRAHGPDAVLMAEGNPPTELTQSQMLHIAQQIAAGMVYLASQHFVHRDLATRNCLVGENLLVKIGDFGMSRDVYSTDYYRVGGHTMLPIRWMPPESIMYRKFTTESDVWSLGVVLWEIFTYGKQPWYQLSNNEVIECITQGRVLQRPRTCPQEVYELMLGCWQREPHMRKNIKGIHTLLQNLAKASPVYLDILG
From the text: as §1, §2

Assay [9] deals with T9, TRKC (Homo sapiens, UniProt Q16288).
T9 construct: purchased DiscoverX (scanMAX panel)
T9 sequence (Q16288 32-839): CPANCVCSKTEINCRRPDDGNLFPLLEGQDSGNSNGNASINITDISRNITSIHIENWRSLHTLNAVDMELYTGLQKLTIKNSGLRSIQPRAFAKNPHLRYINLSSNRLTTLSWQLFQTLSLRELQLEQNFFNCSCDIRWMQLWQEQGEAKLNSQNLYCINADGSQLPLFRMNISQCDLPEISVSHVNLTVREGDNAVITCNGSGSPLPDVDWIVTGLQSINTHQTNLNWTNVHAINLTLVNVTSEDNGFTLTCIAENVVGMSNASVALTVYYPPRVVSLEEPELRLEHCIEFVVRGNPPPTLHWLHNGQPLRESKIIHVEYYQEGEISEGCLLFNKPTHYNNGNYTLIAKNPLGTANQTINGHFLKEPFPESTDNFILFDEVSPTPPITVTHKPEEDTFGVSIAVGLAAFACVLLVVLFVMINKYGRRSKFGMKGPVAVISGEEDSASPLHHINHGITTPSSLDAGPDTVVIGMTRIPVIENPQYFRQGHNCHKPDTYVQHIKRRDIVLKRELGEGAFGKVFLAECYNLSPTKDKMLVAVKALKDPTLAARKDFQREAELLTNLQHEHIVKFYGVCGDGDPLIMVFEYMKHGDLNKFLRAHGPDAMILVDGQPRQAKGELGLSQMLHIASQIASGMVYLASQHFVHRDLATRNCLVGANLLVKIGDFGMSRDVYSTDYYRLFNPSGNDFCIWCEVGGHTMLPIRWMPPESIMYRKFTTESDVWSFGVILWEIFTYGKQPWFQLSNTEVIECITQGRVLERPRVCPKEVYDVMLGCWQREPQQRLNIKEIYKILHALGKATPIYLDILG
From the text: as §1, §2

T5 sequence (P29376 17-864): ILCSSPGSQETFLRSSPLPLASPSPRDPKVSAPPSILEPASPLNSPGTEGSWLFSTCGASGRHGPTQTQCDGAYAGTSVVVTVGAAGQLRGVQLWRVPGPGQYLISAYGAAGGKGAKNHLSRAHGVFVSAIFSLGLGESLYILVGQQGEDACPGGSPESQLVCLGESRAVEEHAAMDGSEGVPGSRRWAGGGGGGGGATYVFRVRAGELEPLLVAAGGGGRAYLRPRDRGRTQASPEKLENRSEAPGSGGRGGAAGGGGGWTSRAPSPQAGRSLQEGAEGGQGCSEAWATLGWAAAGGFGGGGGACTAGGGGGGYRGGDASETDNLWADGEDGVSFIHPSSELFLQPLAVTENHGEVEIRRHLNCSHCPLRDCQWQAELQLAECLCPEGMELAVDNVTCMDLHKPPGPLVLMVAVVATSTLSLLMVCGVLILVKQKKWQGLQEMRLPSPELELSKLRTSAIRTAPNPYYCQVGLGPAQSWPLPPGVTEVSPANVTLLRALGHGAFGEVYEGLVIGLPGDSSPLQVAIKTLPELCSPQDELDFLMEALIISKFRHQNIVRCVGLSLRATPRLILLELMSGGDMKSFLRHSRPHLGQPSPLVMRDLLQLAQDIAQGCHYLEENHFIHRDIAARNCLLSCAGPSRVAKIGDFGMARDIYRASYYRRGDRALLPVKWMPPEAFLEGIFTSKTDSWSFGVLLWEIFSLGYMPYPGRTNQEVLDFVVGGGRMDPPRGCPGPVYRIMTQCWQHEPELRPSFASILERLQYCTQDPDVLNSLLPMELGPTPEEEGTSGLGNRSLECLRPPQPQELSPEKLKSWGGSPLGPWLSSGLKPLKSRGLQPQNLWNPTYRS
T3 sequence (P10721 26-976): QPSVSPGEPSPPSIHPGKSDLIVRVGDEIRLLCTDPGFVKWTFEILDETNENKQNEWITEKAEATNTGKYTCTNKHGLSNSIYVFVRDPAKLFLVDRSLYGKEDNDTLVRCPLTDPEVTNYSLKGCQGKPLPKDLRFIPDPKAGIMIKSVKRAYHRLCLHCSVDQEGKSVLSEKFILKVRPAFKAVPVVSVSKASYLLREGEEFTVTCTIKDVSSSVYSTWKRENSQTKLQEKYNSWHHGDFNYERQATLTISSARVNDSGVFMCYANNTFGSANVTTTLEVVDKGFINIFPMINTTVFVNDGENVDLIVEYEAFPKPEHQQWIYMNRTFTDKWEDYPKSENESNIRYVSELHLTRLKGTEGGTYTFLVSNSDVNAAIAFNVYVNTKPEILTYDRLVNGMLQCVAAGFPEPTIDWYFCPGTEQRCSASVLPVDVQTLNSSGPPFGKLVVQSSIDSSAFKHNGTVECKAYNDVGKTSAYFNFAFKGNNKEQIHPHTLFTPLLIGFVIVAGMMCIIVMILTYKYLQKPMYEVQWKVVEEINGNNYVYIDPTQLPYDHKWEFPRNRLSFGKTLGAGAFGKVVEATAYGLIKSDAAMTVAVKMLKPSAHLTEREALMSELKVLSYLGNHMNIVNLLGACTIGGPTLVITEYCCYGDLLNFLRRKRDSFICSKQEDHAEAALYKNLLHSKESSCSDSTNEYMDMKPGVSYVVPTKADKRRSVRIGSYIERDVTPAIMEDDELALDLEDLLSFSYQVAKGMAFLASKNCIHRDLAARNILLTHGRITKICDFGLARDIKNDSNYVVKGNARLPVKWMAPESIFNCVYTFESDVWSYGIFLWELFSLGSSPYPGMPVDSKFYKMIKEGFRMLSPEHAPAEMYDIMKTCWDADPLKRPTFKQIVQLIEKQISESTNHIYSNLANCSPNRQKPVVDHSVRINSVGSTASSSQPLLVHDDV

Regarding `Cc1cc(NC(=O)[C@H](O)c2cccc(F)c2)ccc1-c1cn(C)c2ncnc(N)c12` [Compound 11, (R)-N-(4-(4-amino-7-methyl-7H-pyrrolo[2,3-d]pyrimidin-5-yl)-3-methylphenyl)-2-(3-fluorophenyl)-2-hydroxy acetamide], the remaining binding at 1 µM worked out at 57% in [1]; 84% in assay [2]; 38% in assay [3]; 4% in assay [4]; 35% in assay [5]; 42% in assay [6]. Moreover, the remaining binding at 1 µM in [7] is 3.4%; in assay [8] it was 22%; in [9], 9.5%.

As to `Cc1nc(N)c2c(-c3ccc(NC(=O)[C@H](O)c4cccc(F)c4)cc3C)cn(C)c2n1` [Compound 24], the remaining binding at 1 µM came out at 100% in assay [1]; 100% in [2]; 100% in assay [3]; 88% in [4]; 100% in [5]; 42% in assay [6]. Further, the remaining binding at 1 µM in assay [7] came out at 100%; in assay [8], 96%; in [9] it was 79%.

Consider `Cc1nc(N)c2c(-c3ccc(NC(=O)[C@H](O)c4cccc(C(F)(F)F)c4)cc3C)cn(C)c2n1` [Compound 26], for which the remaining binding at 0.1 µM in [1] (100 nM) was determined as 100%; in [2] (100 nM), 76%; in assay [3] (100 nM) it was 97%; in [4] (100 nM), 94%; in [5] (100 nM), 98%; in [6] (100 nM), 91%. Also, the remaining binding at 0.1 µM in assay [7] (100 nM) was found to be 100%; in assay [8] (100 nM), 92%; in assay [9] (100 nM), 100%. In addition, the remaining binding at 1 µM came out at 65% in assay [1]; 94% in assay [2]; 0.65% in [3]; 12% in [4]; 22% in assay [5]; 96% in assay [6]. The results for the remaining binding at 1 µM in assay [7], in assay [8] and in [9] were 100%, 18% and 10%, respectively.
